From patent US20080004272A1, “Compositions and methods for modulating gated ion channels” (PainCeptor Pharma Corporation, priority 2006, published 2008)

Each compound was assayed against T1, ASIC1a (Homo sapiens, UniProt P78348) (assay: Two-electrode voltage clamp in Xenopus laevis oocytes (Xo), acid-induced currents). Settings: 30 μM, Xenopus oocytes; read-out: % inh. at 30 μM (Xo).
T1 sequence (P78348 1-528): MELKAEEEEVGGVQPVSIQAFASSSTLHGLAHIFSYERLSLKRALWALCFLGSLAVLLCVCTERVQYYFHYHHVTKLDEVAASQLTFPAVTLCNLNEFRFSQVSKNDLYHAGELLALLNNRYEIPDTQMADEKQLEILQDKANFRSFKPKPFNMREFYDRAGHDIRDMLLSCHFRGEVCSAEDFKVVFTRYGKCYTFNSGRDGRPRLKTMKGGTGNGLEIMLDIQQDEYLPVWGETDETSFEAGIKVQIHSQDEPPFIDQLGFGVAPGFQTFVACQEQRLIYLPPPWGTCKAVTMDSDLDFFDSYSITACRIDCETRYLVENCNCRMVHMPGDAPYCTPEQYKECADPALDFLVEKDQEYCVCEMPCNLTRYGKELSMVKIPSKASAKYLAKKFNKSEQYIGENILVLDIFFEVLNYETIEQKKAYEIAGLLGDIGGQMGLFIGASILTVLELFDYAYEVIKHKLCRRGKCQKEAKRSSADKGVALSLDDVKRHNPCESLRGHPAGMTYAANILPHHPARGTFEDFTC
Type: cell-based
Parameters: expressed in transfected cells; host or cells: Xenopus laevis oocytes (nuclear microinjection of expression vector such as pcDNA3)
Experimental: Two-electrode voltage clamp electrophysiological assays in Xenopus laevis oocytes expressing gated ion channels are performed as follows:
Oocytes are surgically removed from adult Xenopus laevis and treated for 2 h at room temperature with 1 mg/ml type I collagenase (Sigma) in Barth's solution under mild agitation. Selected oocytes at stage IV-V are defolliculated manually before nuclear microinjection of 2.5-5 ng of a suitable expression vector, such as pcDNA3, comprising the nucleotide sequence encoding a gated ion channel subunit protein. In such an experiment, the oocytes express homomultimeric proton-gated ion channels on their surface. In an alternate experiment, one, two, three or more vectors comprising the coding sequences for distinct gated ion channel subunits are co-injected in the oocyte nuclei. In the latter case, oocytes express heteromultimeric proton-gated ion channels. For example, ASIC2a and/or ASIC3 subunits in pcDNA3 vector are co-injected at a 1:1 cDNA ratio. After 2-4 days of expression at 19° C. in Barth's solution containing […] gentamicin and 1.8 mM CaCl2, gated ion channels are activated by applying an acidic solution (pH<7) and currents are recorded in a two electrode voltage-clamp configuration, using an OC-725B amplifier (Warner Instruments). Currents are acquired and digitized at 500 Hz on an Apple Imac G3 computer with an A/D NB-MIO-16XL interface (National Instruments) and recorded traces are post-filtered at 100 Hz in Axograph (Axon Instruments) (Neher, E. and Sakmann, B. (1976) Nature 260:799-802). Once impaled with the microelectrodes, oocytes are continuously superfused at 10-12 ml/min with a modified Ringer's solution containing 97 mM NaCl, 2 mM KCl, 1.8 mM CaCl2, and 10 mM HEPES brought to pH 7.4 with NaOH (Control Ringer). Test Ringer solution is prepared by replacing HEPES with MES and adjusting the pH to the desired acidic value. Compounds of the present invention are prepared in both the Control and Test Ringer solutions and applied to oocytes at room temperature through a computer-controlled switching valve system. Osmolarity of all solutions is adjusted to 235 mOsm with choline chloride. Similarly, recordings can also be acquired in an automated multichannel oocytes system as the OpusExpress™ (Molecular Devices, Sunnyvale, USA).
FIGS. 1A and 2A illustrate the inhibitory effects of Compounds 203 and 206 on acid-induced activation of recombinant homomeric hASIC1a channels.
With `CN1CCc2c(-c3ccccc3)cc3c(c2C1)NC(=O)/C3=N/OC1CCCCO1` (centres unmarked) [Compound 61] the inhibition at 30 µM was > 50%.

Same assay, conditions: 50 μM, Xenopus oocytes; read-out: % inh. at 50 μM (Xo)
With `CN1CCc2c(-c3ccccc3)ccc(CNC(=O)c3ccccc3)c2C1` [Compound 116] the inhibition at 50 µM was < 25%.
With `CCOC(=O)CC(=O)NN=C1C(=O)Nc2c1cc(-c1ccccc1)c1c2CN(C)CC1` [Compound 110] the inhibition at 50 µM was < 25%.
For `CC(C)(C)OC(=O)N1CCc2c(-c3ccccc3)ccc(N)c2C1` [Compound 168], the inhibition at 50 µM was < 25%.
In the case of `COc1ccc(F)cc1-c1cc(C#N)c(N(S(C)(=O)=O)S(C)(=O)=O)c2c1CCN(C)C2` [Compound 196, N-[7-Cyano-5-(5-fluoro-2-methoxy-phenyl)-2-methyl-1,2,3,4-tetrahydro-isoquinolin-8-yl]-dimethanesulfonamide], the inhibition at 50 µM is reported as < 25%.
In the case of `CC(C)(C)OC(=O)N1CCc2c(-c3ccccc3)ccc(NCC(=O)Oc3ccccc3)c2C1` [Compound 170], the inhibition at 50 µM is reported as < 25%.
`COc1ccc(F)cc1Nc1ccc([N+](=O)[O-])c2c1CCN(C)C2` [Compound 6] was tested, and the inhibition at 50 µM was < 25%.
In the case of `CCOC(=O)N1CCc2c(-c3ccccc3)ccc(CN(CC(=O)O)Cc3ccccc3)c2C1` [Compound 123], the inhibition at 50 µM is reported as < 25%.
`CN1CCc2c(-c3ccccc3)cc3c(c2C1)NC(=O)C3=NNC(=O)c1ccc(O)cc1O` [Compound 113] was tested, and the inhibition at 50 µM was < 25%.
With `CN1CCc2c(Br)ccc(NC(=O)CCl)c2C1` [Compound 146] the inhibition at 50 µM was < 25%.
With `CCN(CC)C(=O)c1cc(-c2cc(F)ccc2OC)cc(C)c1NC(=O)N(C)C` [Compound 191, 4-(3,3-Dimethyl-ureido)-5′-fluoro-2′-methoxy-5-methyl-biphenyl-3-carboxylic acid diethylamide] the inhibition at 50 µM was < 25%.
In the case of `CC(C)(C)OC(=O)N1CCc2c(-c3ccccc3)ccc(NCC(=O)O)c2C1` [Compound 165], the inhibition at 50 µM is reported as 20 to 40%.
`CN1CCc2c(-c3ccccc3)cc3ncc(O)nc3c2C1` [Compound 101] was tested, and the inhibition at 50 µM was < 25%.
In the case of `COC(=O)CN(C(C)=O)c1ccc(-c2ccccc2)c2c1CN(C)CC2` [Compound 169], the inhibition at 50 µM is reported as < 25%.
In the case of `CCN(CC)C(=O)c1cc(-c2cc(F)ccc2OC)cc(C)c1N(C(=O)N1CCOCC1)C(=O)N1CCOCC1` [Compound 190, Morpholine-4-carboxylic acid (5-diethylcarbamoyl-5′-fluoro-2′-methoxy-3-methyl-biphenyl-4-yl)-(morpholine-4-carbonyl)-amide], the inhibition at 50 µM is reported as < 25%.
`COc1ccc(F)cc1Oc1ccc([N+](=O)[O-])c2cnccc12` [Compound 8] was tested, and the inhibition at 50 µM was < 25%.
`CCOC(C)O/N=C1/C(=O)Nc2c1cc(-c1ccccc1)c1c2CN(C)CC1` (centres unmarked) [Compound 63] showed an inhibition at 50 µM of 30 to 50%.
With `COc1ccc(F)cc1Oc1ccc([N+](=O)[O-])c2c1CCN(C)C2` [Compound 10] the inhibition at 50 µM was < 25%.
With `O=C(/C=N/O)Nc1ccc(-c2ccccc2)c2c1CNCC2` [Compound 171] the inhibition at 50 µM was < 25%.
With `CCN(CC)C(=O)c1cc(-c2cc(F)ccc2OC)cc(C)c1NC(=O)N1CCNC1=O` [Compound 192, 2-Oxo-imidazolidine-1-carboxylic acid (5-diethylcarbamoyl-5′-fluoro-2′-methoxy-3-methyl-biphenyl-4-yl)-amide] the inhibition at 50 µM was < 25%.
For `CN1CCc2c(-c3ccccc3)cc(C#N)c(Br)c2C1` [Compound 175], the inhibition at 50 µM was < 25%.
`CN1CCc2c(-c3ccccc3)cc3c(c2C1)NC(=O)C3=NNCCO` [Compound 109] was tested, and the inhibition at 50 µM was < 25%.
With `CC(=O)Nc1c(C(N)=O)cc(-c2ccccc2)c2c1CN(C)CC2` [Compound 164] the inhibition at 50 µM was < 25%.
In the case of `COc1ccc(F)cc1Oc1cc2c(c3c1CCN(C)C3)NC(=O)C2=O` [Compound 13], the inhibition at 50 µM is reported as < 25%.
`CN1CCc2c(-c3ccccc3)cc(/C(N)=N/O)c(N)c2C1` [Compound 207] was tested, and the inhibition at 50 µM was > 50%.
In the case of `CN1CCc2c(-c3ccccc3)cc(C(=O)NOCc3ccccc3)c(N)c2C1` [Compound 166], the inhibition at 50 µM is reported as < 25%.
For `COc1ccc(F)cc1Oc1ccc([N+](=O)[O-])c2c[n+](C)ccc12` [Compound 11], the inhibition at 50 µM was < 25%.
In the case of `CN1CCc2c(-c3ccccc3)cc(C#N)c(Cl)c2C1` [Compound 176], the inhibition at 50 µM is reported as < 25%.
In the case of `COc1ccc(F)cc1Nc1ccc(N)c2c1CCN(C)C2` [Compound 7], the inhibition at 50 µM is reported as < 25%.
For `CCOC(=O)CN(Cc1ccccc1)Cc1ccc(-c2ccccc2)c2c1CN(C(=O)OCC)CC2` [Compound 122], the inhibition at 50 µM was 20 to 40%.
With `CN1CCc2c(-c3ccccc3)cc3[nH]c(=O)c(=O)[nH]c3c2C1` [Compound 100] the inhibition at 50 µM was < 25%.
With `CCOC(=O)N1CCc2c(Br)cc(C(=O)CCl)c(N)c2C1` [Compound 163] the inhibition at 50 µM was < 25%.
In the case of `CCOC(C)O/N=C1/C(=O)Nc2c1cc(-c1cc(F)ccc1OC)c1c2CN(C)CC1` (centres unmarked) [Compound 67], the inhibition at 50 µM is reported as < 25%.
Compound `CN1CCc2c(-c3ccccc3)cc3c(c2C1)NC(=O)C3=NNC(=O)C(N)=O` [Compound 107] has an inhibition at 50 µM of 20 to 40%.

Same assay, conditions: 100 μM, Xenopus oocytes; read-out: % inh. at 100 μM (Xo)
In the case of `COCCOCO/N=C1/C(=O)Nc2c1cc(-c1ccccc1)c1c2CN(C)CC1` [Compound 62], the inhibition at 100 µM is reported as > 50%.

Same assay, conditions: Xenopus oocytes, table value; read-out: IC50 (Xo)
`CCOC(=O)CNc1ccc(-c2ccccc2)c2c1CN(C)CC2` [Compound 204, (2-Methyl-5-phenyl-1,2,3,4-tetrahydro-isoquinolin-8-ylamino)-acetic acid ethyl ester] was tested, and the IC50 was > 50 µM.

What follows are compounds tested against T1, ASIC1a (assay: Calcium imaging of MES-induced calcium response (FLIPR)). Settings: ASIC1a expressing HEK293 cells, MES-induced calcium response; read-out: IC50 (FLIPR).
Type: cell-based
Parameters: host or cells: HEK293
Experimental: […] Confluency of cells should be 80-90% on day of plating. Cells are rinsed with 10 ml of PBS and cells are re-suspended by addition of culture medium and trituration with a 25 ml pipette.
The cells are seeded at a density of approximately 1×10^6 cells/ml (100 μl/well) in black-walled, clear bottom, 96-well plates pre-treated with 10 mg/l poly-D-lysin (75 μl/well for ≧30 min). Plated cells are allowed to proliferate for 24 h before loading with dye.
Fluo-4/AM (1 mg, Molecular Probes) is dissolved in 912 μl DMSO. The Fluo-4/AM stock solution (1 mM) is diluted with culture medium to a final concentration of 2 μM (loading solution).
The culture medium is aspirated from the wells, and 50 μl of the Fluo-4/AM loading solution is added to each well. The cells are incubated at 37° C. for 30 min.
Following the second wash, 100 μl modified Assay Buffer is added to each well and the fluorescence is measured in FLIPR™ or FlexStation™ (Molecular Devices, USA), or any other suitable equipment known to the skilled in the art.
Temperature: Room temperature (20-22° C.)
First addition: 50 μl test solution at a rate of 30 μl/sec and a starting height of […]
Second addition: 50 μl MES solution (20 mM, 5 mM final concentration) at a rate of 35 μl/sec and a starting height of 150 μl.
Reading intervals: pre-incubation−10 sec×7 and 3 sec×3 antagonist phase−3 sec×7 and 10 sec×12
Addition plates (compound test plate and MES plate) are placed on the right and left positions in the FLIPR tray, respectively. Cell plates are placed in the middle position and the ASIC1a program is effectuated. FLIPR will then take the appropriate measurements in accordance with the interval settings above. Fluorescence obtained after stimulation is corrected for the mean basal fluorescence (in modified Assay Buffer).
The MES-induced peak calcium response, in the presence of test substance, is expressed relatively to the MES response alone. Test substances that block the MES-induced calcium response are re-tested in triplicates.
For `CN1CCc2c(-c3ccccc3S(=O)(=O)N(C)C)cc3c(c2C1)NC(=O)/C3=N\O` [Compound 223], the IC50 was > 70 µM.
`CN1CCc2c(-c3ccccc3OC(F)(F)F)cc3c(c2C1)NC(=O)/C3=N/O` [Compound 53] was tested, and the IC50 was > 70 µM.
For `COc1c2c(c(C(C)=O)c3c1OCO3)CCN(C)C2` [Compound 33], the IC50 was > 70 µM.
For `CCOC(=O)c1ccc(-c2cc3c(c4c2CCN(C)C4)NC(=O)C3=NO)cc1` [Compound 1, 4-(3-hydroxyimino-8-methyl-2-oxo-2,3,6,7,8,9-hexahydro-1H-pyrrolo[3,2-h]isoquinolin-5-yl)-benzoic acid ethyl ester], the IC50 was > 70 µM.
In the case of `CN1CCc2c(-c3ccc(F)c(Cl)c3)cc3c(c2C1)NC(=O)/C3=N\O` [Compound 14], the IC50 is reported as < 10 µM.
